Assays:
[1] = tested on: rats producing regular cyclic flow reductions (CFRs); experiment: Animal model of internal carotid artery occlusion (Folts model, cyclic flow reductions); assay type: in vivo; conditions: rat
Text: The inhibitory effect of TGX-40 was examined in the well established animal model of arterial thrombosis of Folts et al., 1982, Circulation 65:248-255. This model is used to investigate the effects of antithrombotic drugs on clotting time in vivo in response to a crush injury followed by arterial stenosis.
The carotid artery of an anesthetized rat is dissected out, and an electromagnetic flow probe is placed around the artery to measure blood flow. Proximal to the flow probe, the artery is clamped with surgical forceps covered with silicone tubing to cause intimal and medial damage to the vessel wall. A ligature, or plastic cylinder of appropriate inside diameter is laced around the artery to produce a 70% reduction in arterial diameter.
Platelets aggregate in the area of the stenosed and damaged arterial vessel, gradually forming an occlusive platelet thrombus, seen as a decrease in blood flow. As the thrombus forms, blood pressure increases, causing the thrombus to fragment and embolize distal to the stenosed site. […] This causes a sudden restoration of blood flow. Platelets again aggregate in the area of the stenosed and damaged arterial vessel, repeating the thrombus-embolization pattern. […]
TGX-40 was administered at doses of 1.6 mg/kg and 3.2 mg/kg via the jugular vein and the stabilization of blood flow was recorded.

[2] = tested on: platelet thrombus formation; experiment: Whole-blood flow assay: platelet thrombus formation on vWf matrix (platelet LDH); assay type: cell-based; conditions: shear rate 1800 s^−1
Method: The inhibitory effect of TGX-40 on platelet thrombus formation was examined using a whole-blood flow assay, since thrombi formed by washed platelets are small and poorly reproducible. Anticoagulated whole blood was incubated with 50, 100, or 200 μM TGX-40, or control buffer (0.1% DMSO) for 30 minutes with gentle rocking prior to perfusion through vWf-coated glass microslides for 2 minutes at a shear rate of 1800 s^−1. Non-adherent platelets were removed by washing for 10 minutes at 1800 s^−1, and adherent erythrocytes were lysed with 1% ammonium oxalate. The level of thrombus formation was quantitated indirectly by measuring platelet LDH (U/L) levels in the whole cell lysates by spectrophotometry. Following a 2-minute perfusion of whole blood, platelet-rich thrombi were observed over the surface of the microslide. […] As illustrated graphically in FIG. 2, pretreatment of whole blood with 50, 100, and 200 μM TGX-40 led to a decrease of 25, 53, and 80% in thrombus formation relative to control.

[3] = tested on: K562 (leukaemia derived) and U937 (moncytic) cell lines; experiment: Cell proliferation assay; assay type: cell-based; conditions: 20 μM, 4 day incubation
Method: The anti-proliferative activity of the compounds of this invention from all three chemical classes was determined using K562 (leukaemia derived) and U937 (moncytic) cell lines. The cytotoxic activity of the compounds was monitored over four days by counting cell number and determining cell viability using a colourimetric assay metabolic activity.

platelets = experiment: Flow-based reconstitution assay: platelet adhesion to vWf-coated glass microslides; assay type: cell-based; conditions: 30 min pretreatment, shear rate 1800 s^−1
Method: The effect of TGX-40 on platelet adhesion was examined using a flow-based adhesion assay. Washed platelets were pretreated with 10, 25, or 50 μM TGX-40, or control buffer (0.1% DMSO) for 30 minutes at 37° C. prior to reconstitution with red blood cells to a hematocrit of 50%. The platelets and reconstituted red blood cells were perfused through vWf-coated glass microslides for 1 minute at a shear rate of 1800 s^−1. Non-adherent cells were removed by washing for 10 minutes at 1800 s^−1 and the number of adherent platelet were quantitated and expressed as the mean±SEM. As illustrated graphically in FIG. 1, TGX40 inhibited the ability of platelets to adhere in a dose-dependent manner, showing a decrease of 51, 67 and 86% in platelet adhesion when platelets were pretreated with 10, 25, and 50 μM TGX-40.

[4] = tested on: PI 3-kinase immunoprecipitated from human platelets; experiment: In vitro PI 3-kinase assay (32P incorporation into PI); assay type: biochemical; conditions: PI 3-kinase from human platelets, PI substrate
Method: The effect of TGX-25, TGX-33, TGX-37, TGX-40, TGX-41, TGX-57, TGX-84, TGX-90, TGX-93, TGX-98, TGX-99, TGX-101, TGX-106, TGX-107, TGX-108, TGX-109, TGX-111, TGX-112, TGX-113, TGX-115, TGX-120, TGX-121, TGX-123, TGX-124, TGX-126, TGX-127, TGX-130 or TGX-131on PI 3-kinase activity was determined using an in vitro PI 3-kinase assay. This assay was performed using PI 3-kinase immunoprecipitated from human platelets as the enzyme and PI as the substrate. The PI 3-kinase activity was quantitated by measuring the enzymatic incorporation of [^32P] into PI, forming PI([^32P]-3)P, as previously described (Susa et al., 1992, The Journal of Biological Chemistry 267(32):22951-22956.
Washed human platelets were lysed in Triton X-100 lysis buffer (10 mM Tris, pH 7.4, 1% Triton X-100, 2 mM EDTA, 1 mM PMSF) for 30 minutes. The Triton X-100 insoluble fraction was removed by centrifugation of the cell lysates at 15,000 g for 10 minutes. PI 3-kinase was immunoprecipitated by mixing 500 μg of the cell lysate with 1 μg of a rabbit anti-rat antibody against the p85/110 form of PI 3-kinase and 30 μl of 50% Protein A-sepharose beads for 2 hours at 4° C. The Protein A-sepharose-bound PI 3-kinase was isolated by pelleting the beads at 15,000 g for 5 seconds, and washing three times with ice-old Triton X-100 lysis buffer followed by four washes with PI 3-kinase assay buffer (20 mM HEPES, pH 7.4, 1 mM EGTA, 5 mM MgCl2).
PI stored in CHCl3 was dried under N2, resuspended in the lipid buffer (50 mM HEPES, pH 7.2, 1 mM EDTA) at a final concentration of 330 μg/ml, and sonicated for 6 minutes on ice. PI([^32P]-3)P was generated by mixing the immunoprecipitated PI 3-kinase for 20 minutes with 40 μl of the PI, 10 μl of ATP (1 mM) and ^32P-r-ATP (0.5 μCi, 1 μCi/nmol), 10 μl of 10× kinase buffer, in a final assay volume of 100 μl adjusted with H2O. TGX-25, TGX-33, TGX-37, TGX-40, TGX-41, TGX-57, TGX-84, TGX-90, TGX-93, TGX-98, TGX-99, TGX-101, TGX-106, TGX-107, TGX-108, TGX-109, TGX-111, TGX-112, TGX-113, TGX-115, TGX-120, TGX-121, TGX-123, TGX-124, TGX-126, TGX-127, TGX-130 or TGX-131 was preincubated with the PI 3-kinase for 5 minutes prior to the addition of ATP. The assay was terminated with 100 μl of 1 N HCl, and the PI([^32P]-3)P product extracted with 200 μl chloroform:methanol (1:1) and 500 μl 2 M KCl. The PI([^32P]-3)P in the chloroform phase was resolved by thin layer chromatography using a solvent system containing CHCl3:MeOH:HAC:H2O (43:38:5:7) (v:v:v:v), and visualized by autoradiography. The PI([^32P]-3)P spots were then scraped off from the TLC plates, deacylated with 1 ml methylamine:butanol:methanol (42:9:47) (v:v:v) for 4 hours at 53° C., and quantitated using a liquid scintillation counter (LKB 1209 RackBETA).

tyrosine kinase fyn = tyrosine kinase fyn (Homo sapiens, UniProt P06241); experiment: Enzyme screening assay: tyrosine kinase fyn; assay type: biochemical
Text: (§1) The two leading compounds of the quinolone series, TGX155 and TGX84 were screened for activity against seven enzymes related to PI3K in function or substrate specificity, viz: ATPase, PDE4, tyrosine kinases EGF and fyn, protein kinases A and C, and tyrosine phosphatase.

PI3K γ = biological target: T1, PI3K γ (Homo sapiens, UniProt P48736); experiment: In vitro enzyme assay PI3K γ (recombinant); assay type: biochemical; conditions: recombinant γ isoform
T1 construct: made in house
Method: (§2) In vitro enzyme assays were conducted as a primary screen to determine drug candidate isoform affinity and specificity.
(§3) The α and β isoforms of the PI3K were immunoprecipitated from a platelet lysate using an antibody that recognised the p85 regulatory subunit common to both forms of the enzyme. The γ isoform was produced as a recombinant protein in the Thrombogenix laboratories. […] Standard phosphorylation assays using phosphatidylinositol and ^32P were used to measure the enzyme activity in the immunoprecipates in the presence or absence of an inhibitor. Enzyme activity was determined over a range of inhibitor concentrations to establish an IC50 value.

[5] = tested on: platelet thrombus formation; experiment: Platelet thrombus formation under flow, citrated whole blood, vWf-coated microcapillary tubes (LDH); assay type: cell-based; conditions: 50, 100, 200 μM, 600 s^−1
Method: Citrated whole blood was pretreated with 50, 100 or 200 μM TGX-84, or control buffer (0.1% DMSO) for 10 minutes at 37° C. Blood was perfused through von Willebrand factor-(vWf) coated microcapillary tubes for 2 minutes at 600 s^−1. Non-adherent cells were removed by perfusion of buffer for 2 minutes at 600 s^−1 and any adherent erythrocytes lysed through treatment with 1% ammonium oxalate. Adherent platelets were then lysed through addition of 1% Triton X-100 and lactate dehydrogenase (LDH) levels (U/L) analysed by spectrophotometry.

tyrosine kinase EGF = tyrosine kinase EGF (Homo sapiens, UniProt P00533); experiment: Enzyme screening assay: tyrosine kinase EGF; assay type: biochemical
Text: as §1

PI3K α/β isoforms = experiment: In vitro enzyme assay PI3K α/β; assay type: biochemical; conditions: immunoprecipitated from platelet lysate
Method: as §2, §3

PI4K = biological target: T2, PI4K; experiment: In vitro enzyme assay PI4K; assay type: biochemical; conditions: PI4K isolated from platelets; read-out: IC50 against PI4K
T2 construct: PI4K was isolated from platelets in a similar manner using a PI4K specific antibody
Method: In vitro enzyme assays were conducted as a primary screen to determine drug candidate isoform affinity and specificity. The affinity of two leading compounds of the quinolone series (TGX84 and TGX155) for a closely related enzyme family, PI4K, was also determined to maximise compound specificity and therefore minimise potential adverse biochemical events.
The α and β isoforms of the PI3K were immunoprecipitated from a platelet lysate using an antibody that recognised the p85 regulatory subunit common to both forms of the enzyme. The γ isoform was produced as a recombinant protein in the Thrombogenix laboratories. PI4K was isolated from platelets in a similar manner using a PI4K specific antibody. Standard phosphorylation assays using phosphatidylinositol and ^32P were used to measure the enzyme activity in the immunoprecipates in the presence or absence of an inhibitor. Enzyme activity was determined over a range of inhibitor concentrations to establish an IC50 value.

T1 sequence (P48736 whole entry, species assumed, canonical isoform): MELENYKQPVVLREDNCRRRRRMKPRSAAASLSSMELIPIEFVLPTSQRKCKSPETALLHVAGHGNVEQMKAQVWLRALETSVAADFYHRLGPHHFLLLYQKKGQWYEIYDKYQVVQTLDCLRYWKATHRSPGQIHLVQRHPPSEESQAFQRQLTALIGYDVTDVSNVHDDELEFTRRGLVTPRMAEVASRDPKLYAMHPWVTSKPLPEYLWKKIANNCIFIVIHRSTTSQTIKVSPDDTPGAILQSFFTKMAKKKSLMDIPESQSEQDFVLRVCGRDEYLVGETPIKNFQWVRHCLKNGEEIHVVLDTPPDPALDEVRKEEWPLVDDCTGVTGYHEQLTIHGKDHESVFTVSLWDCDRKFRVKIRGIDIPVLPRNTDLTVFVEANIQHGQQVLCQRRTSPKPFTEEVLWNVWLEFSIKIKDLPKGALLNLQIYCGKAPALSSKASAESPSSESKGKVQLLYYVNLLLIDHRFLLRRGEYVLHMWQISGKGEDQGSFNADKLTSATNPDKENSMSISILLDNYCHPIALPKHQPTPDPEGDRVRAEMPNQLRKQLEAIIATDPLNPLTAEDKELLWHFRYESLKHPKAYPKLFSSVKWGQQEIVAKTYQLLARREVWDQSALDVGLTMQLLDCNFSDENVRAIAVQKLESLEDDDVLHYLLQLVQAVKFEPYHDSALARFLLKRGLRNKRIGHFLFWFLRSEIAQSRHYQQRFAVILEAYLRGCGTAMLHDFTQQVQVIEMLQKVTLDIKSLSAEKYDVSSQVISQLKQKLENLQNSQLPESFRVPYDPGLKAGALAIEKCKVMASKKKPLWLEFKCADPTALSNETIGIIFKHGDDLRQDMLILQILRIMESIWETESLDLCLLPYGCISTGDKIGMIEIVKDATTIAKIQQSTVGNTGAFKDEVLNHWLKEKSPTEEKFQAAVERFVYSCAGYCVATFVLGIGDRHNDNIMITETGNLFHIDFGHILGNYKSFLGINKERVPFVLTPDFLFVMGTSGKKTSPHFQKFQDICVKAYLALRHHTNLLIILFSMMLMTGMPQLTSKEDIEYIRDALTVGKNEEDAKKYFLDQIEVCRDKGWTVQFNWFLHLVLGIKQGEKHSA
tyrosine kinase fyn, sequence (P06241 whole entry): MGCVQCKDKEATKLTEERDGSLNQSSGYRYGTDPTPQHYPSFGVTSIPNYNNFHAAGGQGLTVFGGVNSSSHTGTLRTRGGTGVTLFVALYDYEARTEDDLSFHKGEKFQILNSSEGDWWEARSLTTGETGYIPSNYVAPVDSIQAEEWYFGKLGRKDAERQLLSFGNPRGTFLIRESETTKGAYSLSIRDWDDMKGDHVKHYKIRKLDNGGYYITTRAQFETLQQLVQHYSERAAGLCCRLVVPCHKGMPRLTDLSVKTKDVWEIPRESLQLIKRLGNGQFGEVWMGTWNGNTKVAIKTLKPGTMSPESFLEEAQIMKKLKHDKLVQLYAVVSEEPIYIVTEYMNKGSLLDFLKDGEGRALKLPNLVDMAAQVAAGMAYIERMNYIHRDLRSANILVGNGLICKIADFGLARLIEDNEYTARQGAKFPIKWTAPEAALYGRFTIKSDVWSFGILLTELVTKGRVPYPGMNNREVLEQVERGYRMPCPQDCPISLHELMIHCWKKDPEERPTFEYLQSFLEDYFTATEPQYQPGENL
tyrosine kinase EGF, sequence (P00533 25-1210): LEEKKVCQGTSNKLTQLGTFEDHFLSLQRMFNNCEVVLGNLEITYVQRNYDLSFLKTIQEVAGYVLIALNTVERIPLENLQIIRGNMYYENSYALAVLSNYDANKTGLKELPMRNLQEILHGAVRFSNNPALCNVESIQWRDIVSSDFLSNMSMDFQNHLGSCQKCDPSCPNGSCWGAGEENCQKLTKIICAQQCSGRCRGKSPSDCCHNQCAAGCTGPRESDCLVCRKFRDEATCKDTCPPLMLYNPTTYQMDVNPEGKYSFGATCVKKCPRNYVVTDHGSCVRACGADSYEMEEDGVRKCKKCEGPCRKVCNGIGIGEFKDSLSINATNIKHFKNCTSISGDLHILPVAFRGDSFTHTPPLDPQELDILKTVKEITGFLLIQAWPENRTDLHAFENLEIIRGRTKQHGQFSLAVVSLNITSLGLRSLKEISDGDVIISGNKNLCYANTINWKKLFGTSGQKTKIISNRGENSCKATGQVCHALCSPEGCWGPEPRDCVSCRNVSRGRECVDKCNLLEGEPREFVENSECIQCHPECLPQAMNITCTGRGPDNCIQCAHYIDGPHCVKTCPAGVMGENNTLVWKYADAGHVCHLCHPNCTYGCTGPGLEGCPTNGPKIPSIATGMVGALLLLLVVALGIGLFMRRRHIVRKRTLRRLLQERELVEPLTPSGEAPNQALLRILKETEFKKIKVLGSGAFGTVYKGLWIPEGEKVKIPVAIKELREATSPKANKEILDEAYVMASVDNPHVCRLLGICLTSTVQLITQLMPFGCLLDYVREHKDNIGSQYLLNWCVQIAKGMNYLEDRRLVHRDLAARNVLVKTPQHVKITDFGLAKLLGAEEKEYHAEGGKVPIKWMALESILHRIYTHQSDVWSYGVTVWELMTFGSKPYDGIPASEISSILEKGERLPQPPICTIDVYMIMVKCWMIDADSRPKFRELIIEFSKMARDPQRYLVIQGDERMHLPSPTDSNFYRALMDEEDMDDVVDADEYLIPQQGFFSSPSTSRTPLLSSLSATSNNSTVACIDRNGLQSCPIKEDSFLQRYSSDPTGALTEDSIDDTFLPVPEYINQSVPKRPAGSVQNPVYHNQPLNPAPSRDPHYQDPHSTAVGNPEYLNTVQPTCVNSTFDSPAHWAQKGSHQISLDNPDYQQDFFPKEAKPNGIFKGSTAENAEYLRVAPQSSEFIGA

| SMILES | IC50 [4] [nM] | IC50 (tyrosine kinase fyn) [nM] | IC50 (PI3K γ) [nM] | IC50 (tyrosine kinase EGF) [nM] | IC50 (PI3K α/β isoforms) [nM] | IC50 (PI4K) [nM] | % Cells remaining [3] [%] | further results |
| --- | --- | --- | --- | --- | --- | --- | --- | --- |
| O=c1cc(N2CCOCC2)nc2c(Cc3ccccc3)cccn12 [TGX-40] | ~1500 |  |  |  |  |  | 75 | treated animals returned to baseline within 10 minutes ([1]; 1.6 mg/kg via the jugular vein): 90%; treated animals returned to baseline within 10 minutes ([1]; 3.2 mg/kg via the jugular vein): 90%; decrease in thrombus formation relative to control ([2]; 50 μM): 25%; decrease in thrombus formation relative to control ([2]; 100 μM): 53%; decrease in thrombus formation relative to control ([2]; 200 μM): 80%; decrease in platelet adhesion (platelets; 10 μM): 51%; decrease in platelet adhesion (platelets; 25 μM): 67%; decrease in platelet adhesion (platelets; 50 μM): 86% |
| Cc1cc(N[C@H](C)c2ccccc2)c2nc(N3CCOCC3)cc(=O)n2c1 [TGX-123] | 200 |  |  |  |  |  | 10 |  |
| Cc1cc(NCc2ccccc2Cl)c2nc(N3CCOCC3)cc(=O)n2c1 [TGX-167] | 50 |  | 5000 to 10000 |  | 50 |  | 1.5 |  |
| Cc1cc(CNc2ccc(F)cc2C)c2nc(N3CCOCC3)cc(=O)n2c1 [TGX-186] |  |  |  |  |  |  | 1.5 |  |

Further lines, with some results ahead:

| IC50 [4] [nM] | IC50 (tyrosine kinase fyn) [nM] | IC50 (PI3K γ) [nM] | IC50 (tyrosine kinase EGF) [nM] | IC50 (PI3K α/β isoforms) [nM] | IC50 (PI4K) [nM] | SMILES | % Cells remaining [3] [%] | further results |
| --- | --- | --- | --- | --- | --- | --- | --- | --- |
| 100 | > 100000 | 5000 | > 100000 | 100 | 100000 | O=c1cc(N2CCOCC2)[nH]c2c(Oc3ccccc3)cccc12 [TGX-84, 2-Morpholino-8-phenoxy-4-quinolone] |  | thrombosis formation relative to control [5]: decrease in thrombosis formation relative to control |
| 20 | > 100000 | 5000 | > 100000 | 20 | 100000 | Cc1cc(F)ccc1Oc1cccc2c(=O)cc(N3CCOCC3)[nH]c12 [TGX-155, 8-(4′-Fluoro-2′-methylphenoxy)-2-morpholino-4-quinolone] |  |  |

Reference: patent US7405211B2, “Therapeutic morpholino-substituted compounds” (AstraZeneca AB, priority 2000, dated 2008)
